Source: patent US5035877A, “Non-ionic contrast media from ionic contrast media” (Cook Imaging Corporation, priority 1990, dated 1991)

What was measured:
[1] = must be dispensed lyophilized and reconstituted prior to use; cited from earlier work
Osmolality = assay type: physicochemical; conditions: for osmolality (in words): compared with existing compounds
Method: (§1) Compounds VIII and XVI were tested from stability, solubility, osmolality, viscosity and systemic toxicity.
(§2) *All at 300 mg I/ml concentration and 37° C. Injection rates 1

Viscosity = assay type: physicochemical; conditions: for viscosity (in words): compared with existing compounds
Method: as §1, §2

Mice (CD-1) = assay: Estimated i.v. LD50, mice (systemic toxicity); assay type: in vivo; conditions: 300 mg I/ml, 37° C., injection rate 1 ml/min
Method: as §1, §2
(§3) ml/min in mice and 5 ml/min in rats.
(§4) °Ref. Salvesen, S. in Acta Radiol. Suppl. 362, p. 73, 1980

Rats (Lewis) = assay: Estimated i.v. LD50, rats (systemic toxicity); assay type: in vivo; conditions: 300 mg I/ml, 37° C., injection rate 5 ml/min
Method: as §1, §2, §3, §4

Stability = assay type: physicochemical; conditions: compared with existing compounds
Method: as §1

Solubility = assay type: physicochemical; conditions: compared with existing compounds
Method: as §1

[2] = Systemic toxicity (conventional tests, in words); assay type: in vivo; conditions: compared with existing compounds
Method: as §1

Compound | hydrolytic stability (in words) [1] | osmolality (in words) (Osmolality) | viscosity (in words) (Viscosity) | Estimated i.v. LD50 (Mice (CD-1)) | Estimated i.v. LD50 (Rats (Lewis)) | stability (in words) (Stability) | solubility (in words) (Solubility) | systemic toxicity (in words) [2] | Osmolality (Osmolality; 300 mg I/ml, 37° C.) | Viscosity (Viscosity; 300 mg I/ml, 37° C.)
CC(=O)Nc1c(I)c(C(=O)N[C@H]2C(O)O[C@H](CO)[C@@H](O)[C@@H]2O)c(I)c(N(C)C(C)=O)c1I (some centres unmarked) [Metrizamide] | hydrolytic instability |  |  |  |  |  |  |  |  | 
CNC(=O)c1c(I)c(C(=O)N[C@@H](CO)[C@H](O)CO)c(I)c(N(CC(O)CO)C(C)=O)c1I (relative stereo) [XVI, 5-(N-2,3-Dihydroxypropylacetamido)-2,4,6-triiodo-N-methyl-N'-(1,3,4-trihydroxy-erythro-but-2-yl) isophthalamide] |  | substantially reduced osmolality | comparable properties in the other categories | 12-13 gI/kg | 13.5-14 gI/kg | comparable properties in the other categories | comparable properties in the other categories | comparable properties in the other categories |  | 
CC(=O)N(CC(O)CO)c1c(I)c(C(=O)NCC(O)CO)c(I)c(C(=O)NCC(O)CO)c1I (centres unmarked) [Iohexol] |  |  |  | 16-17 gI/kg | 13.5-15 gI/kg |  |  |  |  | 
CC(=O)N(CC(O)CO)c1c(I)c(C(=O)NCCO)c(I)c(C(=O)NCC(O)CO)c1I (centres unmarked) [VIII, 5-(N-2,3-dihydroxypropylacetamido)-2,4,6-triiodo-N-(2,3-dihydroxypropyl)-N'-(2-hydroxyethyl)-isophthalamide] |  | substantially reduced osmolality | comparable properties in the other categories | 16-17 gI/kg | 14-16.5 gI/kg | comparable properties in the other categories | comparable properties in the other categories | comparable properties in the other categories | 560 mOsm/kg | 5.3 cps
COCC(=O)Nc1c(I)c(C(=O)NCC(O)CO)c(I)c(C(=O)N(C)CC(O)CO)c1I (centres unmarked) [Iopromide] |  |  |  | 11.5-13.0 gI/kg | 10-11.5 gI/kg |  |  |  |  | 
C[C@H](O)C(=O)Nc1c(I)c(C(=O)NC(CO)CO)c(I)c(C(=O)NC(CO)CO)c1I [Iopamidol] |  |  |  | 17-18 gI/kg | 12.2-13 gI/kg |  |  |  |  | 
